The NIST ThermoML archive (doi:10.1016/j.fluid.2013.03.008)

Conditions: Liquid, Closed cell (Static) method

CCCCCCCCCCCCCCCC(=O)OCC [ethyl hexadecanoate]
Conditions	vapor or sublimation pressure [kPa]
412.63 K	0.1
419.36 K	0.15
425.07 K	0.2
433.31 K	0.3
438.71 K	0.4
442.68 K	0.5
448.35 K	0.65
452.99 K	0.8
457.98 K	1
462.64 K	1.2
468.07 K	1.5

CCCCCCCCCCCCCC(=O)OCC [ethyl tetradecanoate]
Conditions	vapor or sublimation pressure [kPa]
392.17 K	0.1
398.52 K	0.15
404.27 K	0.2
410.95 K	0.3
416.1 K	0.4
419.65 K	0.5
425.69 K	0.65
430.55 K	0.8
434.91 K	1
439.1 K	1.2
443.82 K	1.5
